# Legend:
# [1] = system: mice treated with carboplatin; assay: Example 1: dose response of PEGylated TPO Compound No. 1 given one day after carboplatin, anemia in mice; format: in vivo, BALB/c mouse; details: carboplatin alone 2x60mg/kg ip; by Day 11
# Experimental: (§1) The effects of PEGylated TPO Compound No. 1 on mice treated with carboplatin were observed. For all examples herein, a 10 mg/ml stock solution of PEGylated TPO Compound No. 1 was prepared in sterile saline. For mixing, the preparation was placed on a gyratory shaker for 15min. at 200 rpm. This method was used to dissolve PEGylated TPO Compound No. 1 without foaming. The stock was filtered using a GV Millex (0.22um) filter. Dosing solutions were then prepared from this stock using sterile saline. The stock and dosing solutions were prepared fresh on the day of use.
# The effect of PEGylated TPO Compound No. 1 on the duration and severity of anemia following treatment of mice with carboplatin as determined by changes in hemoglobin levels, red blood cell count and hematocrit, was observed. For this study, increasing amounts of PEGylated TPO Compound No. 1 were administered to mice one day following a carboplatin dose to characterize a possible dose-dependent effect on various red blood cell parameters.
# (§2) The groups of mice were treated with either carboplatin or vehicle (Phosphate Buffered Saline, PBS) by intraperitoneal administration on Days -2 and -1 as delineated below. The optimal dose of carboplatin used to induce thrombocytopenia in the BALB/c mouse strain was previously determined to be a fractionated total dose of 120mg/kg given as two consecutive daily injections (i.e., 2x60mg/kg). One day following the second dose of carboplatin, groups of mice were treated with PEGylated TPO Compound No. 1 or vehicle (sterile saline, SS, preservative-free 0.9% sodium chloride) by IV (bolus) injection as delineated in Table 1. The dose was administered on a per-weight basis (100ul/10g body weight).
# (§3) On Days 5, 7, 9 and 11, five mice in each test group were weighed and then euthanised using CO2-asphyxiation and exsanguinations via cardiac puncture. The blood samples were transferred to separate EDTA (lavender-top) microcontainers for hematologic evaluation. Groups of control mice (5) were processed on Days 5 and 11. The data are presented graphically as group means +SEM.
# [2] = system: mice treated with carboplatin; assay: Example 2: dosing seven days before and/or 1 hour after carboplatin, hematological parameters in mice; format: in vivo, BALB/c mouse; details: carboplatin alone
# Experimental: as §1
# The possibility that PEGylated TPO Compound No. 1 may sensitize bone marrow hematopoietic stem cells of mice to the toxic effects of carboplatin treatment was examined. For this study, a dose of PEGylated TPO Compound No. 1 was administered to the mice seven days prior to the carboplatin dose or immediately after carboplatin treatment. An additional group was treated with PEGylated TPO Compound No. 1 both prior to and after carboplatin administration. The effect of these dosing regimens on hematological parameters was also observed.
# The groups of mice were treated with either carboplatin or vehicle (Phosphate Buffered Saline, PBS) by ip administration on Days 7 and 8 as delineated below. The optimal dose of carboplatin used to induce thrombocytopenia in the BALB/c mouse strain was previously determined to be a fractionated total dose of 120mg/kg given as two consecutive daily injections (i.e., 2x60mg/kg). Seven days prior to the first carboplatin dose or one (1) hour after the second dose of carboplatin, groups of mice were treated with PEGylated TPO Compound No. 1 (300ug/kg) or vehicle (sterile saline, SS, preservative-free 0.9% sodium chloride) by IV (bolus) injection as delineated in Table 2. An additional group was treated with PEGylated TPO Compound No. 1 both before (Day 0) and after (Day 8, t=1h) the carboplatin dose. All dosing was performed on a per-weight basis (100ul/10g body weight).
# (§4) On Days 14, 18, 22 and 26, five mice in each test group were weighed and then euthanised using CO2-asphyxiation and exsanguination via cardiac puncture. The blood samples were transferred to separate EDTA (lavender-top) microcontainers for hematological evaluation. Groups of control mice (5) were processed on Days 14 and 26. The data are presented graphically as group means + SEM.
# [3] = system: mice treated with carboplatin; assay: Example 3: dosing 1 hour, 1 day or 4 days after carboplatin, anemia in mice; format: in vivo, BALB/c mouse; details: carboplatin alone; surviving mice (2 mice) by Day 12 compared to control groups
# Experimental: as §1
# The effect of PEGylated TPO Compound No. 1 on the duration and severity of anemia following dosing regimens in which PEGylated TPO Compound No. 1 is administered at various times following the carboplatin treatment was observed. For this study, an amount of PEGylated TPO Compound No. 1 was administered to mice, one (1) hour, one (1) day or four (4) days following a carboplatin dose.
# The groups of mice were treated with either carboplatin or vehicle (Phosphate Buffered Saline, PBS) by ip administration on Days -1 and 0 as delineated below. The optimal dose of carboplatin used to induce thrombocytopenia in the BALB/c mouse strain was previously determined to be a fractionated total dose of 120mg/kg given as two consecutive daily injections (i.e., 2x60mg/kg). One hour (Day 0), one day (Day 1) or four days (Day 4) following the second dose of carboplatin, groups of mice were treated with PEGylated TPO Compound No. 1 (300ug/kg) or vehicle (sterile saline, SS, preservative-free 0.9% sodium chloride) by IV (bolus) injection as delineated in Table 3. The dose was administered on a per-weight basis (100ul/10g body weight).
# as §4, with “6, 8, 10 & 12,” for “14, 18, 22 and 26,”, “exsanguinations” for “exsanguination”, “6 & 12.” for “14 and 26.”
# carboplatin-treated mice = assay: Example 4: lower doses (30, 100, 300ug/kg) as survival factor for erythrocyte lineages in carboplatin-treated mice; format: in vivo, BALB/c mouse; details: carboplatin alone; by Day 12
# Experimental: as §1
# The ability of PEGylated TPO Compound No. 1 to function as a survival factor for megakaryocyte and erythrocyte lineages in carboplatin-treated mice as determined by changes in hematological parameters was observed. […] In this study, the effect of lower doses of PEGylated TPO Compound No. 1 (i.e., 30, 100 and 300ug/kg) on the survival of erythrocyte lineages was examined to characterize the dose-response for this effect.
# as §2, with “ip” for “intraperitoneal”, “-1” for “-2”, “0” for “-1”, “Approximately one hour” for “One day”, “4.” for “1.”
# as §3, with “6, 8” for “5, 7, 9”, “12,” for “11,”, “6 & 12.” for “5 and 11. The data are presented graphically as group means +SEM.”
# [4] = system: mice treated with two rounds of carboplatin; assay: Example 5: two rounds of high-dose carboplatin, hematocrit and survival of mice; format: in vivo; details: of the mice not utilized for hematological evaluation; carboplatin alone versus combination therapy
# Experimental: as §1
# Groups of mice were treated with two rounds of the chemotherapeutic agent (carboplatin) ten days apart, with each round consisting of two consecutive days of carboplatin (i.e., 70 mg/kg/day administered on Days -1 & 0 and Days 10 & 11) as delineated below. The dose of carboplatin utilized for these survival studies exceeded the maximal tolerated dose for mice (i.e., 120 mg/kg; administered as 60 mg/kg/day on 2 consecutive days). One hour following the second dose of carboplatin in each round (i.e., Day 0 and 11) mice were treated with PEGylated TPO Compound No. 1 (100ug/kg) or vehicle (sterile saline, SS, preservative-free 0.9% sodium chloride) by IV (bolus) injection as delineated below. The dose was administered on a per weight basis (100 ul/10g body weight). […]
smiles,measurement,setting,value
N.N.O=C([O-])C1(C(=O)[O-])CCC1.[Pt+2] [carboplatin],decrease in hemoglobin levels,[1],~20%
same,lost body weight (average),[2]; between Days 7 and 26,approximately 4%
same,"decreases in hemoglobin levels, RBC counts and hematocrits",[2]; by Days 18 and 22 compared to control groups,approx. 18%
same,"decreases in hemoglobin levels, RBC counts and hematocrits",[3],approx. 47%
same,decrease in hemoglobin levels,carboplatin-treated mice,greater than 25%
same,mice that died between days 4 and 18,[4],7
